Reference: ChEMBL document CHEMBL5532637, “Antimicrobial activity of natural and semi-synthetic carbazole alkaloids” (Eur J Med Chem, 2023)
≈ marks a conversion by molar mass, not a printed value.

Legend:
Candida albicans [1] = assay: Antifungal activity against Candida albicans SC5314 assessed as inhibition of fungal growth incubated for 24 hrs by microtiter plate reader assay; assay type: functional
Xanthomonas oryzae = assay: Antimicrobial activity against Xanthomonas oryzae by turbidimetric analysis; assay type: functional, organism-based
[2] = Antimicrobial activity against Pseudomonas syringae pv. actinidiae by turbidimetric analysis; assay type: functional
Xanthomonas axonopodis = assay: Antimicrobial activity against Xanthomonas axonopodis by turbidimetric analysis; assay type: functional, organism-based
Bacillus subtilis [3] = assay: Antibacterial activity against Bacillus subtilis assessed as inhibition of bacterial growth by agar well dilution assay; assay type: functional
Escherichia coli [4] = assay: Antibacterial activity against Escherichia coli assessed as inhibition of bacterial growth by agar well dilution assay; assay type: functional
Pasteurella multocida [5] = assay: Antibacterial activity against Pasteurella multocida assessed as inhibition of bacterial growth by agar well dilution assay; assay type: functional
Staphylococcus aureus [6] = assay: Antibacterial activity against Staphylococcus aureus assessed as inhibition of bacterial growth by agar well dilution assay; assay type: functional
Staphylococcus aureus [7] = assay: Antimicrobial activity against methicillin-resistant Staphylococcus aureus assessed as inhibition of microbial growth incubated for 18 hrs by agar diffusion method; assay type: functional
Staphylococcus aureus [8] = assay: Antimicrobial activity against Staphylococcus aureus assessed as inhibition of microbial growth incubated for 18 hrs by agar diffusion method; assay type: functional
Pseudomonas aeruginosa [9] = assay: Antibacterial activity against Pseudomonas aeruginosa assessed as zone of inhibition incubated for 24 hrs by disk diffusion method; assay type: functional
Candida albicans [10] = assay: Antifungal activity against Candida albicans clinical isolate Gu5 assessed as inhibition of fungal growth by broth microdilution method; assay type: functional
Staphylococcus aureus [11] = assay: Antibacterial activity against Staphylococcus aureus assessed as inhibition of bacterial growth by broth microdilution method; assay type: functional
Candida parapsilosis = assay: Antifungal activity against Candida parapsilosis MTCC 7043 assessed as inhibition of fungal growth by broth microdilution method; assay type: functional; conditions: Lodderomyces parapsilosis
Klebsiella pneumoniae [12] = assay: Antibacterial activity against Klebsiella pneumoniae assessed as inhibition of bacterial growth by broth microdilution method; assay type: functional
Escherichia coli [13] = assay: Antibacterial activity against Escherichia coli assessed as inhibition of bacterial growth by broth microdilution method; assay type: functional
Candida albicans [14] = assay: Antifungal activity against Candida albicans clinical isolate Gu4 assessed as inhibition of fungal growth by broth microdilution method; assay type: functional
Candida albicans [15] = assay: Antifungal activity against Candida albicans clinical isolate DSY294 assessed as inhibition of fungal growth by broth microdilution method; assay type: functional
Candida albicans [16] = assay: Antifungal activity against Candida albicans SC5314 assessed as inhibition of fungal growth by broth microdilution method; assay type: functional
Pseudomonas aeruginosa [17] = assay: Antibacterial activity against Pseudomonas aeruginosa assessed as inhibition of bacterial growth by broth microdilution method; assay type: functional
Pichia kudriavzevii = assay: Antifungal activity against Candida krusei MTCC 9215 assessed as inhibition of fungal growth by broth microdilution method; assay type: functional
Candida albicans [18] = assay: Antifungal activity against Candida albicans MTCC 3017 assessed as inhibition of fungal growth by broth microdilution method; assay type: functional
Candida tropicalis [19] = assay: Antifungal activity against Candida tropicalis MTCC 9038 assessed as inhibition of fungal growth by broth microdilution method; assay type: functional
Candida albicans [20] = assay: Antifungal activity against Candida albicans clinical isolate DSY296 assessed as inhibition of fungal growth by broth microdilution method; assay type: functional
Nakaseomyces glabratus = assay: Antifungal activity against Candida glabrata MTCC 3814 assessed as inhibition of fungal growth by broth microdilution method; assay type: functional
[21] = system: Staphylococcus epidermidis; assay: Antibacterial activity against Staphylococcus epidermidis assessed as zone of inhibition at 25 ug/ml; assay type: functional; conditions: read-out: IZ
Escherichia coli [22] = assay: Antibacterial activity against Escherichia coli assessed as zone of inhibition at 25 ug/ml; assay type: functional; conditions: read-out: IZ
Proteus vulgaris = assay: Antibacterial activity against Proteus vulgaris assessed as zone of inhibition at 25 ug/ml; assay type: functional; conditions: read-out: IZ
Bacillus subtilis [23] = assay: Antibacterial activity against Bacillus subtilis assessed as inhibition of bacterial growth incubated for 20 hrs by broth microdilution method; assay type: functional
Escherichia coli [24] = assay: Antibacterial activity against wild type Escherichia coli assessed as inhibition of bacterial growth incubated for 20 hrs by broth microdilution method; assay type: functional
Escherichia coli [25] = assay: Antibacterial activity against Escherichia coli expressing recombinant blaNDM-1 gene assessed as inhibition of bacterial growth incubated for 20 hrs by broth microdilution method; assay type: functional
Staphylococcus aureus [26] = assay: Antibacterial activity against methicillin-resistant Staphylococcus aureus assessed as inhibition of bacterial growth incubated for 20 hrs by broth microdilution method; assay type: functional
Staphylococcus aureus [27] = assay: Antibacterial activity against wild type Staphylococcus aureus assessed as inhibition of bacterial growth incubated for 20 hrs by broth microdilution method; assay type: functional
Escherichia coli [28] = assay: Antibacterial activity against Escherichia coli expressing blaNDM-1 gene assessed as inhibition of bacterial growth incubated for 20 hrs by broth microdilution method; assay type: functional
Klebsiella pneumoniae [29] = assay: Antibacterial activity against Klebsiella pneumoniae assessed as inhibition of bacterial growth incubated for 20 hrs by broth microdilution method; assay type: functional
Staphylococcus aureus [30] = assay: Antibacterial activity against Staphylococcus aureus assessed as zone of inhibition by filter paper disk-agar diffusion method; assay type: functional
Staphylococcus aureus [31] = assay: Antibacterial activity against methicillin-resistant Staphylococcus aureus SK1 assessed as inhibition of bacterial growth by two-fold serial dilution method; assay type: functional
Candida tropicalis [32] = assay: Antifungal activity against Candida tropicalis assessed as inhibition of fungal growth incubated for overnight by MTT based serial dilution method; assay type: functional
Candida albicans [33] = assay: Antifungal activity against Candida albicans assessed as inhibition of fungal growth incubated for overnight by MTT based serial dilution method; assay type: functional
Aspergillus fumigatus = assay: Antifungal activity against Aspergillus fumigatus assessed as inhibition of fungal growth incubated for overnight by MTT based serial dilution method; assay type: functional
A549 = assay: Cytotoxicity against human A549 cells incubated for 48 hrs by sulforhodamine B assay; assay type: functional
HeLa = assay: Cytotoxicity against human HeLa cells incubated for 48 hrs by sulforhodamine B assay; assay type: functional
Candida albicans [34] = assay: Antimicrobial activity against Candida albicans assessed as inhibition of microbial growth incubated for 18 to 20 hrs by broth microdilution method; assay type: functional; conditions: time 18-20 hrs
Bacillus mycoides = assay: Antimicrobial activity against Bacillus mycoides assessed as inhibition of microbial growth incubated for 18 to 20 hrs by broth microdilution method; assay type: functional; conditions: time 18-20 hrs
Staphylococcus aureus [35] = assay: Antimicrobial activity against methicillin-resistant Staphylococcus aureus assessed as inhibition of microbial growth incubated for 18 to 20 hrs by broth microdilution method; assay type: functional; conditions: time 18-20 hrs
[36] = system: Mycolicibacterium smegmatis; assay: Antimicrobial activity against Mycobacterium smegmatis assessed as inhibition of microbial growth incubated for 18 to 20 hrs by broth microdilution method; assay type: functional; conditions: time 18-20 hrs
Pasteurella multocida [37] = assay: Antibacterial activity against Pasteurella multocida assessed as inhibition of bacterial growth by agar well diffusion method; assay type: functional
Bacillus subtilis [38] = assay: Antibacterial activity against Bacillus subtilis assessed as inhibition of bacterial growth by agar well diffusion method; assay type: functional
Bacillus cereus = assay: Antibacterial activity against Bacillus cereus assessed as inhibition of bacterial growth; assay type: functional, organism-based

## Clc1ccc2[nH]c3c(c2c1)CCCC3NCc1ccc(-c2ccccc2)cc1 (configuration not stated)
Candida albicans [1]
  MIC50: 6.8 µM (≈ 2.63 µg/mL)

## O=C1COc2ccccc2N1CC(O)CN1CCN(CC(O)Cn2c3ccccc3c3ccccc32)CC1 (configuration not stated)
Xanthomonas oryzae
  EC50: 4.95 µg/mL (≈ 9.62 µM)
[2]
  EC50: 8.5 µg/mL (≈ 16.5 µM)
Xanthomonas axonopodis
  EC50: 4.71 µg/mL (≈ 9.15 µM)

## OC(CNCc1cn(-c2ccc(F)cc2)nn1)Cn1c2ccccc2c2ccccc21 (configuration not stated)
Xanthomonas oryzae
  EC50: 3.36 µg/mL (≈ 8.09 µM)
[2]
  EC50: 14.2 µg/mL (≈ 34.2 µM)
Xanthomonas axonopodis
  EC50: 2.87 µg/mL (≈ 6.91 µM)

## C/C(=N/C(=S)C(=S)n1cc(CC(=O)O)c2ccccc21)C1CCCc2c1[nH]c1c([N+](=O)[O-])cc([N+](=O)[O-])cc21 (configuration not stated)
Bacillus subtilis [3]
  MIC: 0.056 µg/mL (≈ 0.0994 µM)
Escherichia coli [4]
  MIC: 0.056 µg/mL (≈ 0.0994 µM)
Pasteurella multocida [5]
  MIC: 0.056 µg/mL (≈ 0.0994 µM)
Staphylococcus aureus [6]
  MIC: 0.056 µg/mL (≈ 0.0994 µM)

## CC(C)=CC1OC(=O)c2cc(O)c3[nH]c4ccccc4c3c21 (configuration not stated)
Staphylococcus aureus [7]
  MIC: 64 µg/mL
Staphylococcus aureus [8]
  MIC: 64 µg/mL

## CCOc1nc2c(c(-c3ccc(F)cc3)c1C(N)=O)CCc1c-2[nH]c2ccccc12
Pseudomonas aeruginosa [9]
  inhibition zone (IZ): 2.1 cm

## COc1cc2c(cc1O)[nH]c1c3c(c(C)cc12)OC(C)(C)C=C3
Candida albicans [10]
  MIC90: 12.5 µg/mL (≈ 40.4 µM)
Staphylococcus aureus [11]
  MIC90: 3.12 µg/mL (≈ 10.1 µM)
Candida parapsilosis
  MIC90: 12.5 µg/mL (≈ 40.4 µM)
Klebsiella pneumoniae [12]
  MIC90: 3.12 µg/mL (≈ 10.1 µM)
Escherichia coli [13]
  MIC90: > 100 µg/mL
Candida albicans [14]
  MIC90: 12.5 µg/mL (≈ 40.4 µM)
Candida albicans [15]
  MIC90: 12.5 µg/mL (≈ 40.4 µM)
Candida albicans [16]
  MIC90: 12.5 µg/mL (≈ 40.4 µM)
Pseudomonas aeruginosa [17]
  MIC90: > 100 µg/mL
Pichia kudriavzevii
  MIC90: 12.5 µg/mL (≈ 40.4 µM)
Candida albicans [18]
  MIC90: 12.5 µg/mL (≈ 40.4 µM)
Candida tropicalis [19]
  MIC90: 12.5 µg/mL (≈ 40.4 µM)
Candida albicans [20]
  MIC90: 12.5 µg/mL (≈ 40.4 µM)
Nakaseomyces glabratus
  MIC90: 12.5 µg/mL (≈ 40.4 µM)

## Cc1cccc2c3c([nH]c12)C(=O)/C(=C/c1ccc(Br)cc1)CC3
[21]
  zone of inhibition at 25 µg/mL: 15 mm
Escherichia coli [22]
  zone of inhibition at 25 µg/mL: 15 mm
Proteus vulgaris
  zone of inhibition at 25 µg/mL: 15 mm

## Fc1cc(F)c2c(c1)[nH]c1ccc(F)cc12
Bacillus subtilis [23]
  MIC: 1.5 µg/mL (≈ 6.78 µM)
Escherichia coli [24]
  MIC: 1.5 µg/mL (≈ 6.78 µM)
Escherichia coli [25]
  MIC: 1.5 µg/mL
Staphylococcus aureus [26]
  MIC: 1.5 µg/mL (≈ 6.78 µM)
Staphylococcus aureus [27]
  MIC: 1.5 µg/mL (≈ 6.78 µM)
Escherichia coli [28]
  MIC: 1.5 µg/mL (≈ 6.78 µM)
Klebsiella pneumoniae [29]
  MIC: 1.5 µg/mL (≈ 6.78 µM)

## COc1cc2c(cc1O)[nH]c1cc(O)c(C=O)cc12 [CLAULANSINE J]
Staphylococcus aureus [30]
  inhibition zone (IZ): 14.2 mm

## C=C(C)C1Cc2c(cc(O)c3[nH]c4ccccc4c23)C(=O)O1 (configuration not stated) [CLAUSAMINE A]
Staphylococcus aureus [7]
  MIC: 64 µg/mL
Staphylococcus aureus [31]
  MIC: 8 µg/mL (≈ 27.3 µM)

## C/C(=N\C(Cc1c[nH]cn1)C(=O)Oc1cc(C(=O)O)cc(O)c1O)C1CCCc2c1[nH]c1c([N+](=O)[O-])cc([N+](=O)[O-])cc21 (configuration not stated)
Bacillus subtilis [3]
  MIC: 0.056 µg/mL (≈ 0.0945 µM)
Escherichia coli [4]
  MIC: 0.056 µg/mL (≈ 0.0945 µM)
Pasteurella multocida [5]
  MIC: 0.056 µg/mL (≈ 0.0945 µM)
Staphylococcus aureus [6]
  MIC: 0.056 µg/mL (≈ 0.0945 µM)

## COCn1c2c(c3cc(F)ccc31)Cc1cocc1C2
Candida tropicalis [32]
  MIC: 7.81 µg/mL (≈ 28.8 µM)
Candida albicans [33]
  MIC: 7.81 µg/mL (≈ 28.8 µM)
Aspergillus fumigatus
  MIC: 7.81 µg/mL (≈ 28.8 µM)

## CC(C)=CCc1ccc2c([nH]c3cc(O)c(C=O)cc32)c1O
A549
  IC: 5.25 µg/mL
HeLa
  IC: 1.91 µg/mL

## COc1ccc2[nH]c3c(O)cccc3c2c1Cl
Candida albicans [34]
  MIC: 32 µg/mL
Bacillus mycoides
  MIC: 32 µg/mL
Staphylococcus aureus [35]
  MIC: 32 µg/mL
[36]
  MIC: 32 µg/mL

## C/C(=N/Nc1ccccc1)C1CCCc2c1n(C)c1c([N+](=O)[O-])cc([N+](=O)[O-])cc21 (configuration not stated)
Pasteurella multocida [37]
  MIC: 1.8 µg/mL (≈ 4.42 µM)
Bacillus subtilis [38]
  MIC: 1.8 µg/mL (≈ 4.42 µM)

## Cc1cc2c([nH]c3ccccc32)c2c1OC(C)(C)C=C2 [GRINIMIBINE]
Bacillus cereus
  IC50: 3.4 µM
